Common to all, as to format: biochemical
The target in one test is T1, DYRK1A (Homo sapiens, UniProt Q13627).
T1 construct: purchased Carna Biosciences, Inc. 04-130
In words: Inhibition test on activity of DYRK family, mobility shift assay (MSA): DYRK1A. Particulars: read-out: Inhibitory activity DYRK 1A. A digest of the protocol:
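Mobility shift assay with recombinant DYRK1A (0.2 ng/μL enzyme solution), FITC-DYRKtide substrate (4 μM in substrate mix), 100 μM ATP in substrate mix, HEPES pH 7.5 buffer with MgCl2; 1 h at room temperature. Phosphorylated vs unphosphorylated peptide peaks quantified; IC50 from regression of inhibition rate against log concentration.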

Another test deals with T2, DYRK2 (Homo sapiens, UniProt Q92630).
T2 construct: purchased Carna Biosciences, Inc. 04-132
T2 sequence (Q92630 74-601 limits assumed): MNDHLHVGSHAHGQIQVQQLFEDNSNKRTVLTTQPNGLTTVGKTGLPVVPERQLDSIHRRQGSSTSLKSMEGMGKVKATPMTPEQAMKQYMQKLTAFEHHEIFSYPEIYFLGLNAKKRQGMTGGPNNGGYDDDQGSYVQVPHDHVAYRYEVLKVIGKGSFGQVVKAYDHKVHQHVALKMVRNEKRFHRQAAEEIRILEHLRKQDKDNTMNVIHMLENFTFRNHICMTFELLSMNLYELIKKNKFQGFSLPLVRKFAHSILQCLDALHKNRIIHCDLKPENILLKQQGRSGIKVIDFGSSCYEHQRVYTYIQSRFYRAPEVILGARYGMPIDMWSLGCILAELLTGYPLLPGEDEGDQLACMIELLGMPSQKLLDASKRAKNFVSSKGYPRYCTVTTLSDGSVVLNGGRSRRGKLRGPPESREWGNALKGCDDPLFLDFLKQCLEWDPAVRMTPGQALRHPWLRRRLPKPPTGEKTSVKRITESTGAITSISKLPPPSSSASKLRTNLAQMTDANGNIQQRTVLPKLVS
In words: Inhibition test on activity of DYRK family, mobility shift assay (MSA): DYRK2. The note with it: read-out: Inhibitory activity DYRK 2. A digest of the protocol:
(§1)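 Mobility-shift readout of FITC-DYRKtide phosphorylation in 20 mM HEPES pH 7.5. The substrate mix held 4 µM peptide, 20 mM MgCl2 and ATP at 100 (1A), 200 (1B), 40 (2) or 20 µM (3). Reaction 1 h at room temperature; IC50 from regression of P/(P+S)-based inhibition vs log concentration.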

In a further test the target is T3, DYRK3 (Homo sapiens, UniProt O43781).
T3 construct: purchased Carna Biosciences, Inc. 04-133
T3 sequence (O43781 1-568 isoform O43781-2): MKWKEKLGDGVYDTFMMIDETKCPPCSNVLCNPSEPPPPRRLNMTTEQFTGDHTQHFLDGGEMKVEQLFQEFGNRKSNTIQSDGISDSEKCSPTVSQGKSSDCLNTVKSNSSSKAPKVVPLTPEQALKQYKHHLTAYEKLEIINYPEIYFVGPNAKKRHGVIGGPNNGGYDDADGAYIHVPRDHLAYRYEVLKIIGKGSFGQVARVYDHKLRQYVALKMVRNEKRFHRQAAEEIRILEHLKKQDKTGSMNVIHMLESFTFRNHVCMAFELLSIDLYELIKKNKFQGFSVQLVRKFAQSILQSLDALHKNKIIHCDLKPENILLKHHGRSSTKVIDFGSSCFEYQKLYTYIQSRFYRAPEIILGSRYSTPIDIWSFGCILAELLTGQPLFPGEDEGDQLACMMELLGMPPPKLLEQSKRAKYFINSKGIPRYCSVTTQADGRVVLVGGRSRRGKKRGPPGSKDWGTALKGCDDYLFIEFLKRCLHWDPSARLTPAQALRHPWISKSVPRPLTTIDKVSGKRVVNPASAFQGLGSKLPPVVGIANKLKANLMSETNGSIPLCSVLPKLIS
In words: Inhibition test on activity of DYRK family, mobility shift assay (MSA): DYRK3. The note with it: read-out: Inhibitory activity DYRK 3. A digest of the protocol:
as §1

The structures appear in SMILES notation. pIC50: −log10 of the molar value.

For `O=C1N[C@H]2CN(C3CC3)C[C@H]2N1c1nc2c3c(ccc2s1)OCC3` [Example 101], the pIC50 at DYRK1A was 7.00 to 8.00; on DYRK2, at most 6.00; on DYRK3, at most 6.00.

Turning to `C[C@@H]1NC(=O)N(c2nc3c4c(ccc3s2)OCC4)[C@@H]1CN1CC[C@H](F)C1` [Example 115, (4S,5R)-1-(7,8-dihydrofuro[3,2-e][1,3]benzothiazol-2-yl)-5-{[(3S)-3-fluoropyrrolidin-1-yl]methyl}-4-methylimidazolidin-2-one], the pIC50 on DYRK1A is 7.00 to 8.00; at DYRK2, 6.00 to 7.00; at DYRK3, at most 6.00.

As for `C[C@@H]1NC(=O)N(c2nc3c4c(ccc3s2)OCC4)[C@@H]1CN1CC(F)(F)C1` [Example 116, (4S,5R)-5-[(3,3-difluoroazetidin-1-yl)methyl]-1-(7,8-dihydrofuro[3,2-e][1,3]benzothiazol-2-yl)-4-methylimidazolidin-2-one], the pIC50 on DYRK1A was 7.00 to 8.00; at DYRK2, at most 6.00; on DYRK3, at most 6.00.

As for `C[C@@H]1NC(=O)N(c2nc3c4c(ccc3s2)OCC4)[C@@H]1CN1CCC(F)(F)C1` [Example 117, (4S,5R)-5-[(3,3-difluoropyrrolidin-1-yl)methyl]-1-(7,8-dihydrofuro[3,2-e][1,3]benzothiazol-2-yl)-4-methylimidazolidin-2-one], the pIC50 at DYRK1A is 7.00 to 8.00; at DYRK2 it was at most 6.00; at DYRK3, at most 6.00.

Regarding `C[C@@H]1NC(=O)N(c2nc3c4c(ccc3s2)OCC4)[C@@H]1CN1CC(F)C1` [Example 118, (4S,5R)-1-(7,8-dihydrofuro[3,2-e][1,3]benzothiazol-2-yl)-5-[(3-fluoroazetidin-1-yl)methyl]-4-methylimidazolidin-2-one], the pIC50 on DYRK1A was 7.00 to 8.00; at DYRK2 it was at most 6.00; on DYRK3, at most 6.00.

Take `CC1(C)C[C@H]2[C@@H](CO1)NC(=O)N2c1nc2c3c(ccc2s1)OCC3` [Example 123]: the pIC50 on DYRK1A, on DYRK2 and at DYRK3 was at most 6.00 throughout.

Regarding `CC1(C)C[C@@H]2[C@H](CO1)NC(=O)N2c1nc2c3c(ccc2s1)OCC3` [Example 124, (3aR,7aR)-1-(7,8-dihydrofuro[3,2-e][1,3]benzothiazol-2-yl)-6,6-dimethylhexahydropyrano[3,4-d]imidazol-2(3H)-one], the pIC50 at DYRK1A was over 8.00; at DYRK2, 6.00 to 7.00; at DYRK3, 6.00 to 7.00.

Take `O=C1N[C@@H]2CCOC[C@H]2N1c1nc2c3c(ccc2s1)OCC3` [Example 125]: the pIC50 at DYRK1A is 7.00 to 8.00; on DYRK2, 6.00 to 7.00; at DYRK3 it was 6.00 to 7.00.

`O=C1N[C@@H]2COCC[C@H]2N1c1nc2c3c(ccc2s1)OCC3` [Example 126]: the pIC50 at DYRK1A, at DYRK2 and at DYRK3 was 6.00 to 7.00 in each case.

As for `N#C[C@H]1C[C@@H]2[C@H](CO1)NC(=O)N2c1nc2c3c(ccc2s1)OCC3` [Example 127, (3aR,6R,7aR)-1-(7,8-dihydrofuro[3,2-e][1,3]benzothiazol-2-yl)-2-oxooctahydropyrano[3,4-d]imidazole-6-carbonitrile], the pIC50 on DYRK1A is over 8.00; on DYRK2, 6.00 to 7.00; on DYRK3, 6.00 to 7.00.

On to `N#C[C@H]1C[C@H]2NC(=O)N(c3nc4c5c(ccc4s3)OCC5)[C@H]2CO1` [Example 128], for which the pIC50 at DYRK1A, at DYRK2 and on DYRK3 was at most 6.00 throughout.

`CO[C@H]1C[C@@H]2[C@H](CO1)NC(=O)N2c1nc2c3c(ccc2s1)OCC3` [Example 129, (3aR,6R,7aR)-1-(7,8-dihydrofuro[3,2-e][1,3]benzothiazol-2-yl)-6-methoxyhexahydropyrano[3,4-d]imidazol-2(3H)-one]: the pIC50 at DYRK1A is 7.00 to 8.00; at DYRK2, 6.00 to 7.00; on DYRK3, 6.00 to 7.00.

In the case of `CO[C@H]1C[C@H]2NC(=O)N(c3nc4c5c(ccc4s3)OCC5)[C@H]2CO1` [Example 130], the pIC50 is 6.00 to 7.00 on DYRK1A, at most 6.00 on DYRK2 and at most 6.00 at DYRK3.
